We go through three compounds from US20260053801A1, “METHOD FOR TREATING AUTOPHAGY DEPENDENT CANCER WITH A PIKFYVE INHIBITOR” (The Regents of the University of Michigan, priority 2023, published 2026).

Data set [1] relates to FASN and ACACA transcripts in AsPC1 cell-derived xenograft. As to conditions: 30 mg/kg MRTX1133 6 hours prior to tumor collection; cited from earlier work.
Another data set deals with FASN and ACACA. The experiment in a line: qPCR of FASN and ACACA in PDAC cell lines treated with KRAS-MAPK inhibitors. It counts as cell-based. As to conditions: eight hours; PDAC cell lines with the relevant KRAS mutation. As for the experimental part:
Total RNA was isolated from cells using the miRNeasy kit (Qiagen), and cDNA was synthesized from 1000 ng of total RNA using Maxima First Strand cDNA Synthesis Kit for RT-qPCR (Thermo Fisher Scientific). Quantitative real-time PCR was performed in triplicates using standard SYBR green reagents and protocols on a QuantStudio 5 Real-Time PCR system (Applied Biosystems). The target mRNA expression was quantified using the ΔΔCt method and normalized to ACTB (human) or Actb (murine) expression. All primers were designed using Primer 3 (http://frodo.wi.mit.edu/primer3/) and synthesized by Integrated DNA Technologies (Coralville).

Data set [2] concerns FASN and ACACA transcripts in AsPC1 cells. To be noted: MRTX1133 100 nM, 24 hours; cited from earlier work.
The test system of data set [3] is autophagic flux in 7940B cells. In words: GFP-LC3-RFP-LC3ΔG autophagic flux probe assay in 7940B cells. As to conditions: for basal autophagic flux / autophagic flux induced by torin-1: apilimod 100 nM, ESK981 1000 nM, chloroquine 50 μM; for autophagic flux induced by torin-1: torin-1 100 nM. It counts as cell-based, mouse. From the text:
(§1) Generation of the autophagic flux probe in 7940B, Panc 04.03, and iKRAS was done according to the original author's instructions. Kaizuka, T. et al., Mol Cell 64, 835-849, doi:10.1016/j.molcel.2016.09.037 (2016). Briefly, cells were infected with pMRX-IP-GFP-LC3-RFP-LC3DG, which was a gift from Noboru Mizushima (Addgene plasmid #84572; http://n2t.net/addgene:84572; RRID:Addgene_84572). Following puromycin selection, single-cell clones were expanded and genotyped to ensure the absence of homologous recombination between two LC3 fragments during retrovirus integration.
(§2) 15,000 cells were seeded in 96-well plates. After overnight incubation, cells were treated with the indicated compounds for 24 hours. […] Fluorescent signals were detected using the Infinite M1000 Pro plate reader (Tecan).

Data set [4] has as its system autophagic flux in Panc 04.03 cells. In words: GFP-LC3-RFP-LC3ΔG autophagic flux probe assay in Panc 04.03 cells. It counts as cell-based, human. To be noted: for autophagic flux induced by torin-1: 4-hour pre-treatment, then torin-1 100 nM 24 hours; for autophagic flux induced by torin-1 / basal autophagic flux: apilimod 300 nM, ESK981 1000 nM, chloroquine.
Source text: as §1, §2

In data set [5] the test system is 7940B cells. The experiment in a line: Targeted metabolomics in 7940B cells. To be noted: apilimod 100 nM, ESK981 1000 nM. It counts as cell-based, mouse. As for the experimental part: Polar metabolites from samples treated in biological triplicates were extracted using 80% v/v methanol/water and normalized using protein quantification from an additional sample from each condition. Equal estimated amounts of metabolites were dried using a SpeedVac vacuum concentrator, reconstituted in 50% v/v methanol in water, and analyzed by LC-MS as previously described. Data were analyzed as previously described with the Agilent Masshunter Workstation Quantitative Analysis for QQQ version 10.1 Build 10.1.733.0. No post-detection normalization was performed to avoid assuming linearity of signal. Heatmaps were generated using the Morpheus Matrix Visualization and analysis tool (https://software.broadinstitute.org/morpheus).

A further data set concerns the target T1, mouse PIKfyve protein (Mus musculus, UniProt Q9Z1T6).
T1 construct: endogenous in cells; host or cells: 7940B (murine KPC pancreatic cancer cell line)
The experiment in a line: Cellular Thermal Shift Assay (CETSA) in 7940B cells. It counts as binding. To be noted: 1000 nM, 2 hours. As for the experimental part:
CETSA was performed according to previously described protocols^71. Briefly, 7940B cells were seeded overnight and were subsequently treated with DMSO, ESK981 (1000 nM), or apilimod (1000 nM) for 2 hours. Cells were then harvested and made into single-cell suspensions of 1×10^6 cells each in […] of PBS containing protease inhibitors. The suspensions were then subjected to heating and cooling cycles (two cycles of 3-minute heating followed by 3-minute cooling at room temperature) using a thermal cycler. Cells were then lysed with three cycles of freeze-thawing in liquid nitrogen. Lysates were then analyzed using immunoblot analysis as previously described.

Data set [6] has as its system 7940B cells. The experiment in a line: Targeted lipidomics in 7940B cells. It counts as cell-based, mouse. As to conditions: 24 hours; apilimod 100 nM, ESK981 1000 nM. As for the experimental part:
Sample preparation: Samples for lipidomics analyses were prepared according to the automatic dual-metabolite/lipid sample preparation workflow described in the Agilent application note 5994-5065EN. Briefly, 1 million cells were washed in PBS and lysed with 1:1 trifluoroethanol/water at room temperature. Lysates were transferred to microcentrifuged tubes, incubated for 10 minutes, and then centrifuged at 250×g for 30 seconds. Samples were then dehydrated under reduced pressure with no heat. […]
LC-MS/MS analysis: samples were analyzed on an Agilent 1290 Infinity II Bio LC ultra-high performed liquid chromatography (UPLC) system consisting of a high-pressure binary pump, multicolumn thermostat, and a temperature controlled multi-sampler. Samples were analyzed in randomized order on an Agilent 649C triple quadrupole mass spectrometer equipped with an Agilent Jet Stream Dual ESI ion source. Specifically, samples were analyzed with the reverse phase LC-MS/MS method reported in the Agilent application note 5994-3747EN. After acquisition, datasets were processed with MassHunter Quantitative analysis software and subsequently imported into Mass Profiler Professional (MPP) for chemometric analysis. […]

The conditions of data set [7]: Ikonomov et al. 2019; cited from earlier work.
The next data set concerns cell surface MHC-I. In words: Flow cytometry of cell surface MHC-I in mouse cancer lines. It counts as cell-based. To be noted: pancreatic (KPC1361); extended to 4T1, B16-F10, LLC. On the technique in general: A flow cytometer gives signals particle by particle.
Data set [8] has as its system 7940B cells. The experiment in a line: RNA-seq in 7940B cells. It counts as cell-based, mouse. As to conditions: eight-hour treatment. As for the experimental part:
RNA-seq libraries were prepared using 800 ng of total RNA. Ribosomal RNA were removed by enzymatic digestion of the specific probe-bound duplex rRNA, and then fragmented to around 200-300 bp with heat in fragmentation buffer (KAPA RNA Hyper+RiboErase HMR, Roche). Double-stranded cDNA was then synthesized by reverse transcription and underwent end-repair and ligation using New England Biolabs (NEB) adapters. Final library preparation was then prepared by amplification with 2×KAPA HiFI HotStart mix and NEB dual barcode. Library quality was measured on an Agilent 2100 Bioanalyzer (DNA 1000 chip) for concentration and product size. Paired-end libraries were sequenced with the Illumina NovaSeq, (2×151 nucleotide read length) with sequence coverage to 30-40 million paired reads. Reads were demultiplexed using Illumina's bcl2fastq conversion software v2.20. Transcripts were quantified by the alignment-free approach kallisto using index generated from mouse reference genome (mm10) and then summed to obtain gene level counts. Differential analysis was performed using limma-voom after TMM-normalization of gene level counts with calcNormFactors of edgeR. Genes with mean Transcripts Per Million (TPM) less than 1 in both control and treatment groups were considered as lowly expressed genes and excluded for differential analysis. […]

Data set [9] deals with 7940B cells. The experiment in a line: Real-time oxygen consumption rate (Resipher) in 7940B cells. To be noted: apilimod 100 nM, ESK981 1000 nM, bafilomycin 100 nM, chloroquine 100 μM. It counts as cell-based, mouse. As for the experimental part: Real-time monitoring of basal oxygen consumption rate was performed using a Resipher (Lucid Scientific). […] Immediately following treatment with an additional 50 μl of medium (for a total of 100 μl), OCR monitoring was started by placing the Resipher device on the cells, which was incubated at 37° C. and 5% CO2 for 24 hours.

Data set [10] relates to 7 human and mouse PDAC cell lines. To be noted: 7 days, CellTiter-Glo. As for the experimental part:
Cells were plated into 96-well plates and incubated overnight at 37° C. in 5% CO2. The following day, a serial dilution of the indicated compounds was prepared in culture medium and added to the plate. The cells were then further incubated for 5 days (experiments involving MRTX1133 or trametinib) or 7 days (all other experiments). Subsequently, the CellTiter-Glo assay (Promega), was then performed according to the manufacturer's instructions. The luminescence signal was acquired using an Infinite M1000 Pro plate reader (Tecan), and the data were analyzed using GraphPad Prism 10 (GraphPad Software Inc.).

The test system of data set [11] is autophagic flux in iKras cells. In words: Autophagic flux probe assay in iKRAS 9805 cells. It counts as cell-based. As to conditions: doxycycline withdrawal; apilimod 100 nM, ESK981 1000 nM, chloroquine 10 μM, 24 hours.
Source text: as §1, §2

The mark [12] stands for this setting: 24-hour treatment, labeled doses.
Where [13] appears, read: MRTX1133 300 nM or trametinib 25 nM, 24 hours.

Molecules are shown by their SMILES. “Also recorded” adds a separate entry of the source.

T1 sequence (Q9Z1T6 whole entry): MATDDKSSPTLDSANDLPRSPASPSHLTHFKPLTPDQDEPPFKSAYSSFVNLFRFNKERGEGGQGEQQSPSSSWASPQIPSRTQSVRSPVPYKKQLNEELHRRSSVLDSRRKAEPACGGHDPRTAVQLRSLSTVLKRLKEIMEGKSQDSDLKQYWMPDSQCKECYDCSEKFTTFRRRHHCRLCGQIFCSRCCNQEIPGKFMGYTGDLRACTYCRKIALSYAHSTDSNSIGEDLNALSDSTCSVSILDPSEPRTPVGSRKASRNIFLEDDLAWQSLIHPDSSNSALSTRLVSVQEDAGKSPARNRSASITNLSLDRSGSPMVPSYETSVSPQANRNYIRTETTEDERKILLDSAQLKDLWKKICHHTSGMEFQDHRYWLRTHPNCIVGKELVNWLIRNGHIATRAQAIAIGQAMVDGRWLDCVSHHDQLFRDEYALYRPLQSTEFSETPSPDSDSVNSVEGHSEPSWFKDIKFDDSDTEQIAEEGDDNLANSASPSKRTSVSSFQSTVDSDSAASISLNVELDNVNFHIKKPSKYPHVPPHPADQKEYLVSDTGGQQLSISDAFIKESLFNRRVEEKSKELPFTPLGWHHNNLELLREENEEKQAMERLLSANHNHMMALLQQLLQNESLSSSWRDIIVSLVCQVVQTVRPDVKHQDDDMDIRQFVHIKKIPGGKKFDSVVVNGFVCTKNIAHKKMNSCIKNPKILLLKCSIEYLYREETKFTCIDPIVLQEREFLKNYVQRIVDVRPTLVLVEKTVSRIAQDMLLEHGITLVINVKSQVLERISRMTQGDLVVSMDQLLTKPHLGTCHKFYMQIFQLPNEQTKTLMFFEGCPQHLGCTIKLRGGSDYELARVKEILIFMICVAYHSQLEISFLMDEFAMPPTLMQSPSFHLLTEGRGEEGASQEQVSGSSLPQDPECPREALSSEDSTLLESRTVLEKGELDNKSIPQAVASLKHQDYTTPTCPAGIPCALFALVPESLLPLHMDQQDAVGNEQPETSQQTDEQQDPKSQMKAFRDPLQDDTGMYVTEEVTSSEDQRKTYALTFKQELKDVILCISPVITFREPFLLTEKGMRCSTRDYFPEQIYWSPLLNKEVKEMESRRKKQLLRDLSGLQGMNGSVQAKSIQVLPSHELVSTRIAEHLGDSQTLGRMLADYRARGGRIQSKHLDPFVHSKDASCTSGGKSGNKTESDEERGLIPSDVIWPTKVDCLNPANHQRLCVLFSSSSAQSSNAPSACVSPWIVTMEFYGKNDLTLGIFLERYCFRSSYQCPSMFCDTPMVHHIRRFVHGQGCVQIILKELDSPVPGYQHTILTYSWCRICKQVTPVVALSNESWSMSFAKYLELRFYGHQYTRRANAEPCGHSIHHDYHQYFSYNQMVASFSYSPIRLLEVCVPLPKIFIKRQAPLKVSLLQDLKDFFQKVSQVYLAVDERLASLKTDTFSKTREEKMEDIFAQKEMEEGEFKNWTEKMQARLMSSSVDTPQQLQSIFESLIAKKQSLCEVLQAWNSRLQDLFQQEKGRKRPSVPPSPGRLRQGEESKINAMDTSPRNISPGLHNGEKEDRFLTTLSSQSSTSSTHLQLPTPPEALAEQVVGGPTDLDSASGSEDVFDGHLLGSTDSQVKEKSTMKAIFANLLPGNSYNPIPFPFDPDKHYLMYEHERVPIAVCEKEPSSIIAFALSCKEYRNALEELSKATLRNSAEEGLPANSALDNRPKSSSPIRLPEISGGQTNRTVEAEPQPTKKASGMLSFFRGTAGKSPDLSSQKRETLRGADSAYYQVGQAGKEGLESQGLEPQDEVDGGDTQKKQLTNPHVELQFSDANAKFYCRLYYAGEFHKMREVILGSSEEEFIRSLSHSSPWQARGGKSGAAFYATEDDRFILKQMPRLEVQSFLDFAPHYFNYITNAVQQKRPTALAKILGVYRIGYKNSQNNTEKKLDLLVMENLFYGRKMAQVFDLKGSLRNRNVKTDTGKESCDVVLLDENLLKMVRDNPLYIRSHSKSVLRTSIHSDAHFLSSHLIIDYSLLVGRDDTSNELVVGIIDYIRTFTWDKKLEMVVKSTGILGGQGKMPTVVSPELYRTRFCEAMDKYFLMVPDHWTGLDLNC

`C#Cc1c(F)ccc2cc(O)cc(-c3ncc4c(N5CC6CCC(C5)N6)nc(OC[C@@]56CCCN5C[C@H](F)C6)nc4c3F)c12` [MRTX1133]: in data set [1], the “FASN and ACACA transcripts in vivo” value was “decreases FASN and ACACA transcripts”. Also, the “transcription of FASN and ACACA” value in the data set on FASN and ACACA was “decreased transcription of FASN and ACACA”. Also, the “FASN and ACACA transcripts in vitro” value in data set [2] is “decreases FASN and ACACA transcripts”. The “autophagy upon acute KRAS G12D inhibition” value in data set [3] (setting [12]) and in data set [4] (setting [12]) was “upregulate autophagy” each time. The “autophagic flux upon KRAS-MAPK inhibition” value in data set [3] (setting [13]) and in [4] (setting [13]) was “induced autophagic flux” throughout.

Take `Cc1cccc(/C=N/Nc2cc(N3CCOCC3)nc(OCCc3ccccn3)n2)c1` [apilimod, N-[(E)-(3-methylphenyl)methylideneamino]-6-morpholin-4-yl-2-(2-pyridin-2-ylethoxy)pyrimidin-4-amine]: the glycolytic metabolites entry with 7940B cells [5] (eight hours) was “dramatic depletion of glycolytic metabolites”. In the data set on 7940B cells [5] (three hours), the citrate level entry is given as “decrease in citrate”. The “binding / stabilization of PIKfyve (CETSA)” value at mouse PIKfyve protein is “bind to mouse PIKfyve protein; also recorded: stabilization of PIKfyve”. For the same compound, the cellular lipid landscape entry in the data set on 7940B cells [6] is “induced significant changes in the cellular lipid landscape”. In data set [7], the in vivo pharmacokinetics result is “poor in vivo pharmacokinetics”. The basal autophagic flux result in data set [3] (24 hours) and in data set [4] was “decreased” throughout. Moreover, the “autophagic flux induced by torin-1” value in data set [3] and in [4] was “decreased” in each case. Also, the “cell surface expression of MHC-I” value with cell surface MHC-I is reported as “increased cell surface expression of MHC-I”. Also, the gene expression changes entry in the data set on 7940B cells [8] is recorded as “concordant gene expression changes”. In addition, in the data set on 7940B cells [8], the most upregulated pathways entry is “cholesterol homeostasis, MTORC1 signaling, and fatty acid metabolism”.

On to `CCN(CC)CCCC(C)Nc1ccnc2cc(Cl)ccc12` (centres unmarked) [chloroquine], for which the “OCR through 24 hours of treatment” value with 7940B cells [9] is on record as “significantly decreased OCR”. Moreover, the “half-maximal inhibitory concentrations (IC50), cell viability” value in data set [10] is “much higher”. Also, in data set [11], the “increase in autophagic flux upon Kras OFF” value is listed as “attenuated”. Also, the basal autophagic flux result in data set [3] (24 hours) and in data set [4] was “decreased” throughout. Further, the “autophagic flux induced by torin-1” value in [3] and in data set [4] was “decreased” throughout.
